ChEMBL document CHEMBL4665860, “Focused structure-activity relationship profiling around the 2-phenylindole scaffold of a cannabinoid type-1 receptor agonist-positive allosteric modulator: site-III aromatic-ring congeners with enhanced activity and solubility” (Bioorg Med Chem, 2020)
Converted amounts (≈) assume the structure as drawn.

Legend:
Cannabinoid receptor 1 [1] = molecular target: T1, Cannabinoid receptor 1 (Homo sapiens, UniProt P21554); assay: Positive allosteric modulatory activity at human CB1 receptor expressed in CHO-K1 cells assessed as increase in CP55940-induced inhibition of forskolin-stimulated cAMP production preincubated for 30 mins […] by Hit-hunter assay; type: functional, cell-based
Cannabinoid receptor 1 [2] = molecular target: T1, Cannabinoid receptor 1; assay: Positive allosteric modulatory activity at human CB1 receptor expressed in CHO-K1 cells assessed as increase in CP55940-induced beta-arrestin recruitment preincubated 90 mins followed by CP55940 addition and measured after 60 mins by PathHunter assay relative to CP55940; type: cell-based
Cannabinoid receptor 1 [3] = molecular target: T1, Cannabinoid receptor 1; assay: Positive allosteric modulatory activity at human CB1 receptor expressed in CHO-K1 cells assessed as increase in CP55940-induced beta-arrestin recruitment […] and measured after 60 mins by PathHunter assay; type: cell-based
Cannabinoid receptor 1 [4] = molecular target: T1, Cannabinoid receptor 1; assay: Positive allosteric modulatory activity at human CB1 receptor expressed in CHO-K1 cells assessed as increase in CP55940-induced inhibition of forskolin-stimulated cAMP production preincubated for 30 mins followed by CP55940 addition and measured after 60 mins by Hit-hunter assay relative to control; type: functional, cell-based
physchem = settings: PBS, pH 7.4
[5] = filed as positive allosteric modulator

T1 sequence (P21554 whole entry): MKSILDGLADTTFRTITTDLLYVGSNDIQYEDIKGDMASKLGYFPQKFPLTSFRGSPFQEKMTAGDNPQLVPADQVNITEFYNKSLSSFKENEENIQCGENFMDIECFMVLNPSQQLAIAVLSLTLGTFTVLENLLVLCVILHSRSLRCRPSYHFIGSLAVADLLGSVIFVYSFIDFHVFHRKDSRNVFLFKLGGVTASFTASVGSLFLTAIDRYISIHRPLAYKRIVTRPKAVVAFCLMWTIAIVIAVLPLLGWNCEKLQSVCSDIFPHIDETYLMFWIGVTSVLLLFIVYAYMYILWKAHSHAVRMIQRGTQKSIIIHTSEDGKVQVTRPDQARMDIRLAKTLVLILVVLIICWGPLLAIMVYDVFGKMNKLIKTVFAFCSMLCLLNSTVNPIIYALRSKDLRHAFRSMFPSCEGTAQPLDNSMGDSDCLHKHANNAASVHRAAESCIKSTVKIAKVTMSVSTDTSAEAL

Row | Structure (SMILES) | EC50 (Cannabinoid receptor 1 [1]) [nM] | Emax (Cannabinoid receptor 1 [2]) [%] | EC50 (Cannabinoid receptor 1 [3]) [nM] | Emax (Cannabinoid receptor 1 [4]; [5]) [%] | Emax (Cannabinoid receptor 1 [2]; [5]) [%] | solubility kinetic at 2 h (physchem) [µM] | Emax (Cannabinoid receptor 1 [4]) [%]
1 | Cn1cncc1C(C[N+](=O)[O-])c1c(-c2ccccc2)[nH]c2ccccc12 (stereo not drawn) | > 10000 | 0 | > 10000 | 46.1 | – | – | –
2 | O=[N+]([O-])CC(c1cccc(N2CCCC2)c1)c1c(-c2ccccc2)[nH]c2ccccc12 (stereo not drawn) | 423 | 6.69 | > 10000 | 110 | – | – | –
3 | Cc1ccc2c(C(C[N+](=O)[O-])c3nccs3)c(-c3ccccc3)[nH]c2c1 (stereo not drawn) | 50 | – | 163 | 98.5 | 80.6 | 3.13 (≈ 1.14 µg/mL) | –
4 | Cn1cnc(C(C[N+](=O)[O-])c2c(-c3ccccc3)[nH]c3ccccc23)c1 (stereo not drawn) | > 10000 | 0.667 | > 10000 | – | – | – | 34.4
5 | Cn1ccnc1C(C[N+](=O)[O-])c1c(-c2ccccc2)[nH]c2ccccc12 (stereo not drawn) | 533 | 0 | > 10000 | 52.7 | – | – | –
6 | Cc1cccc(C(C[N+](=O)[O-])c2c(-c3ccccc3)[nH]c3ccccc23)c1 (stereo not drawn) | 662 | 23.8 | 1990 | 116 | – | – | –
7 | O=[N+]([O-])CC(c1ccccc1C(F)(F)F)c1c(-c2ccccc2)[nH]c2ccccc12 (stereo not drawn) | 557 | – | 792 | 86.2 | 68.1 | – | –
8 | O=[N+]([O-])CC(c1ccccc1F)c1c(-c2ccccc2)[nH]c2ccccc12 (stereo not drawn) | – | – | 782 | – | 56 | – | –
9 | O=[N+]([O-])CC(c1ccc(N2CCOCC2)cc1)c1c(-c2ccccc2)[nH]c2ccccc12 (stereo not drawn) | > 10000 | 0 | > 10000 | 87.6 | – | – | –
10 | O=[N+]([O-])CC(Cc1ccccc1)c1c(-c2ccccc2)[nH]c2ccccc12 (stereo not drawn) | 420 | 0 | > 10000 | 115 | – | – | –
11 | O=[N+]([O-])CC(c1ccco1)c1c(-c2ccccc2)[nH]c2ccccc12 (stereo not drawn) | 245 | 28.8 | 655 | 99.8 | – | – | –
12 | O=[N+]([O-])CC(c1ccoc1)c1c(-c2ccccc2)[nH]c2ccccc12 (stereo not drawn) | 513 | 12.9 | > 10000 | 144 | – | – | –
13 | O=[N+]([O-])CC(c1ccc(N2CCCCC2)cc1)c1c(-c2ccccc2)[nH]c2ccccc12 (stereo not drawn) | 476 | – | 2460 | 125 | 42.1 | – | –
14 | Cc1ccc(C(C[N+](=O)[O-])c2c(-c3ccccc3)[nH]c3ccccc23)cc1 (stereo not drawn) | 1440 | 0 | > 10000 | 119 | – | – | –
15 | O=[N+]([O-])CC(c1ccc(F)cc1)c1c(-c2ccccc2)[nH]c2ccccc12 (stereo not drawn) | – | – | > 10000 | – | – | – | –
16 | Cc1ccc2c(C(C[N+](=O)[O-])c3cccs3)c(-c3ccccc3)[nH]c2c1 (stereo not drawn) | 33 | – | 379 | – | 78.2 | 1.56 (≈ 0.565 µg/mL) | –
17 | CC(C)(C)c1ccc(C(C[N+](=O)[O-])c2c(-c3ccccc3)[nH]c3ccccc23)cc1 (stereo not drawn) | 203 | 5.57 | > 10000 | 109 | – | – | –
18 | O=[N+]([O-])CC(c1cccc(C(F)(F)F)c1)c1c(-c2ccccc2)[nH]c2ccccc12 (stereo not drawn) | 127 | 0 | > 10000 | 151 | – | – | –
19 | O=[N+]([O-])CC(c1ccc[nH]1)c1c(-c2ccccc2)[nH]c2ccccc12 (stereo not drawn) | 209 | 0.7 | > 10000 | 77.1 | – | – | –
20 | O=[N+]([O-])CC(c1ccc2ccccc2c1)c1c(-c2ccccc2)[nH]c2ccccc12 (stereo not drawn) | 483 | 31.8 | 2340 | 113 | – | – | –
21 | COc1ccccc1C(C[N+](=O)[O-])c1c(-c2ccccc2)[nH]c2ccccc12 (stereo not drawn) | 411 | 37 | 1870 | 118 | – | – | –

Row | Structure (SMILES) | EC50 (Cannabinoid receptor 1 [1]) [nM] | Emax (Cannabinoid receptor 1 [2]) [%] | EC50 (Cannabinoid receptor 1 [3]) [nM] | Emax (Cannabinoid receptor 1 [4]; [5]) [%] | Emax (Cannabinoid receptor 1 [2]; [5]) [%] | solubility kinetic at 2 h (physchem) [µM] | Emax (Cannabinoid receptor 1 [4]) [%]
22 | O=[N+]([O-])CC(c1ccc(Cl)cc1)c1c(-c2ccccc2)[nH]c2ccccc12 (stereo not drawn) | 1320 | 0 | > 10000 | 74.8 | – | – | –
23 | O=[N+]([O-])CC(c1cccs1)c1c(-c2ccccc2)[nH]c2ccccc12 (stereo not drawn) | 31 | 36.1 | 584 | 116 | – | – | –
24 | COc1ccc(C(C[N+](=O)[O-])c2c(-c3ccccc3)[nH]c3ccccc23)cc1 (stereo not drawn) | 1180 | 0 | > 10000 | 119 | – | – | –
25 | O=[N+]([O-])CC(c1c(-c2ccccc2)[nH]c2ccccc12)C1CCCCC1 (stereo not drawn) | 495 | 26.8 | 1900 | 117 | – | – | –
26 | O=[N+]([O-])CC(c1cccc2ccccc12)c1c(-c2ccccc2)[nH]c2ccccc12 (stereo not drawn) | > 10000 | 0 | > 10000 | 62.2 | – | – | –
27 | O=[N+]([O-])CC(c1ncco1)c1c(-c2ccccc2)[nH]c2ccccc12 (stereo not drawn) | 856 | 3.21 | > 10000 | 56.6 | – | – | –
28 | O=[N+]([O-])CC(c1ccccc1N1CCCC1)c1c(-c2ccccc2)[nH]c2ccccc12 (stereo not drawn) | 1820 | 7.28 | > 10000 | 75.9 | – | – | –
29 | O=[N+]([O-])CC(c1ccc(-c2ccccc2)cc1)c1c(-c2ccccc2)[nH]c2ccccc12 (stereo not drawn) | > 10000 | 5 | > 10000 | – | – | – | 25.5
30 | COc1cccc(C(C[N+](=O)[O-])c2c(-c3ccccc3)[nH]c3ccccc23)c1 (stereo not drawn) | 664 | 4.96 | > 10000 | 131 | – | – | –
31 | O=[N+]([O-])CC(c1cccc(Cl)c1)c1c(-c2ccccc2)[nH]c2ccccc12 (stereo not drawn) | 859 | 16 | 2980 | 121 | – | – | –
32 | O=[N+]([O-])CC(c1ccccc1Cl)c1c(-c2ccccc2)[nH]c2ccccc12 (stereo not drawn) | 18 | – | 1240 | 75 | 93.4 | – | –
33 | O=[N+]([O-])CC(c1cccc(F)c1)c1c(-c2ccccc2)[nH]c2ccccc12 (stereo not drawn) | – | 15.7 | > 10000 | 118 | – | – | –
34 | O=[N+]([O-])CC(c1nccs1)c1c(-c2ccccc2)[nH]c2ccccc12 (stereo not drawn) | 192 | 32.6 | 331 | 83.7 | – | – | –
35 | O=[N+]([O-])CC(c1ccc(N2CCCC2)cc1)c1c(-c2ccccc2)[nH]c2ccccc12 (stereo not drawn) | 618 | 0 | > 10000 | 97.4 | – | – | –
36 | Cc1ccccc1C(C[N+](=O)[O-])c1c(-c2ccccc2)[nH]c2ccccc12 (stereo not drawn) | 3 | – | 57 | 81.7 | 68.5 | – | –
37 | O=[N+]([O-])CC(c1ccsc1)c1c(-c2ccccc2)[nH]c2ccccc12 (stereo not drawn) | 119 | 23.9 | 1610 | 125 | – | – | –
38 | O=[N+]([O-])CC(c1c(Cl)cccc1Cl)c1c(-c2ccccc2)[nH]c2ccccc12 (stereo not drawn) | 571 | 3.72 | > 10000 | 128 | – | – | –
39 | O=[N+]([O-])CC(c1ccc(C(F)(F)F)cc1)c1c(-c2ccccc2)[nH]c2ccccc12 (stereo not drawn) | > 10000 | 0 | > 10000 | 65.1 | – | – | –
40 | Cc1ccc2c(C(C[N+](=O)[O-])c3ncco3)c(-c3ccccc3)[nH]c2c1 (stereo not drawn) | 261 | 14.5 | > 10000 | 67.2 | – | 12.5 (≈ 4.34 µg/mL) | –
41 | O=[N+]([O-])CC(c1ccccc1)c1c(-c2ccccc2)[nH]c2ccccc12 (stereo not drawn) | – | – | – | 99.6 | 54.1 | – | –
